Converted amounts (≈) assume the structure as drawn.
What was measured:
Assay type in all cases: functional
[1] = tested on: Micrococcus luteus; experiment: Antimicrobial activity against Micrococcus luteus
[2] = tested on: Cryptococcus neoformans; experiment: Antimicrobial activity against Cryptococcus neoformans
[3] = tested on: Trichophyton mentagrophytes; experiment: Antimicrobial activity against Trichophyton mentagrophytes

Work on `C[C@@H]1CC[C@@H]2[C@@H]1[C@H]1[C@@H](CC[C@]2(C)N)C1(C)C` [HALICHONADIN F] yielded an MIC [1] of 4 µg/mL (≈ 18.1 µM), an MIC [2] of 16 µg/mL (≈ 72.3 µM) and an MIC [3] of 16 µg/mL (≈ 72.3 µM).

— ChEMBL document CHEMBL1157532, “Halichonadin F and the Cu(I) complex of halichonadin C from the sponge Halichondria sp” (2008)
